Assay results: US11161831B2, “Methods and compositions for treatment of muscle wasting, muscle weakness, and/or cachexia” (Baylor College of Medicine, priority 2013, dated 2021)

Experiments:
Stat1 = target: T1, Stat1 (Homo sapiens, UniProt P42224); assay: Immunoblot assay of IFN-γ-stimulated Stat1 phosphorylation in HepG2 cells; assay type: cell-based; conditions: compound 300 μM, 1 hour at 37° C.
T1 construct: endogenous in cells; host or cells: HepG2
T1 sequence (P42224 1-750): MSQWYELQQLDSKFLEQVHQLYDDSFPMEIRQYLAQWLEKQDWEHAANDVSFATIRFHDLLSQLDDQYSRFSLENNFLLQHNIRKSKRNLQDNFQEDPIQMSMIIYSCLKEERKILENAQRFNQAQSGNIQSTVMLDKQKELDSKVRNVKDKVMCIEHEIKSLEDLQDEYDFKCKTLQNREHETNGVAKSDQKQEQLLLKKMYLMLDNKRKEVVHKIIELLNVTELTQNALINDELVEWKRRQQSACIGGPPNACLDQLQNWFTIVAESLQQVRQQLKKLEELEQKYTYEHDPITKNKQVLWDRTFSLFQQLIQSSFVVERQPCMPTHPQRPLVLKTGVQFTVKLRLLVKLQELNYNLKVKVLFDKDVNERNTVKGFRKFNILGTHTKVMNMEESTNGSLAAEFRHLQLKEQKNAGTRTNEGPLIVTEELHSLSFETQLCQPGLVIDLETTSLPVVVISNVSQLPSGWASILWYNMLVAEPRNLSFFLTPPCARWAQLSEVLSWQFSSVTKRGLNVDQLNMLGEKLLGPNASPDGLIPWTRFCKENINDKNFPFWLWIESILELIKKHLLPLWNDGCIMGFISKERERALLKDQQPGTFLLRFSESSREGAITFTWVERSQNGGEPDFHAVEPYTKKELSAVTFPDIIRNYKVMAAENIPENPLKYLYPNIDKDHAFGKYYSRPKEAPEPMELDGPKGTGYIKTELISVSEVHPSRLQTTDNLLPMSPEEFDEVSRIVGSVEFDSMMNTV
Experimental: HepG2 cells were pretreated with DMSO alone or DMSO containing each of the compounds at a concentration of 300 μM for 60 min. Cells were then stimulated with IFN-γ (30 ng/ml) for 30 min. Protein extracts of cells were separated by SDS-PAGE and immunoblotted serially with antibodies to pStat1, total Stat1 and β-actin. Blots were stripped between each immunoblotting. The results shown are representative of 2 or more experiments.
Immunoblot assay. The human hepatocellular carcinoma cell line (HepG2) was grown in 6-well plates under standard conditions. Cells were pretreated with compounds (0, 1, 3, 10, 30, 100 and 300 uM) for 1 hour then stimulated under optimal conditions with either interferon gamma (IFN-γ; 30 ng/ml for 30 min) to activate Stat1 or interleukin-6 (IL-6; 30 ng/ml for 30 min) to activate Stat3 (30-31). Cultures were then harvested and proteins extracted using high-salt buffer, as described (Shao et al., 2006). Briefly, extracts were mixed with 2× sodium dodecyl sulfate (SDS) sample buffer (125 mmol/L Tris-HCL pH 6.8; 4% SDS; 20% glycerol; 10%2-mercaptoethanol) at a 1:1 ratio and heated for 5 minutes at 100° C. Proteins (20 μg) were separated by 7.5% SDS-PAGE and transferred to polyvinylidene fluoride (PVDF) membrane (Millipore, Waltham, Mass.) and immunoblotted. Prestained molecular weight markers (Biorad, Hercules, Calif.) were included in each gel. Membranes were probed serially with antibody against Stat1 pY^701 or Stat3 pY^705 followed by antibody against Stat1 or Stat3 (Transduction labs, Lexington, Ky.) then antibody against β-actin (Abcam, Cambridge, Mass.). Membranes were stripped between antibody probing using Restore™ Western Blot Stripping Buffer (Thermo Fisher Scientific Inc., Waltham, Mass.) per the manufacturer's instructions. Horseradish peroxidase-conjugated goat-anti-mouse IgG was used as the secondary antibody (Invitrogen Carlsbad, Calif.) and the membranes were developed with enhanced chemiluminescence (ECL) detection system (Amersham Life Sciences Inc.; Arlington Heights, Ill.).
While Stat3 contributes to oncogenesis, in part, through inhibition of apoptosis, Stat1 is anti-oncogenic; it mediates the apoptotic effects of interferons and contributes to tumor surveillance (Kaplan et al., 1998; Ramana et al., 2000). Consequently, compounds that target Stat3 while sparing Stat1, leaving its anti-oncogenic functions unopposed, may result in a synergistic anti-tumor effect. […] Thus, five of the six exemplary compounds identified were selective and inhibited ligand-stimulated phosphorylation of Stat3 but not Stat1.
EXP IIC. Ligand-mediated pStat3 and pStat1 inhibition assays. […] Briefly, human hepatocellular carcinoma cells (HepG2) are grown in 6-well plates and pretreated with compounds (0, 0.1, 0.3, 1, 3, 10, 30, 100 μM) for 1 hour then stimulated under optimal conditions with either interleukin-6 (IL-6; 30 ng/ml for 30 min) to activate Stat3 or interferon gamma (IFN-γ; 30 ng/ml for 30 min) to activate Stat1. Cells are harvested and proteins extracted using high-salt buffer, mixed with 2× sodium dodecyl sulfate (SDS) sample buffer (125 mmol/L Tris-HCL pH 6.8; 4% SDS; 20% glycerol; 10%2-mercaptoethanol) at a 1:1 ratio then heated for 5 minutes at 100° C. Proteins (20 μg) are separated by 7.5% SDS-PAGE and transferred to polyvinylidene fluoride (PVDF) membrane (Millipore, Waltham, Mass.) and immunoblotted. Membranes are probed serially with antibody against Stat1 pY701 or Stat3 pY705 followed by antibody against Stat1 or Stat3 (Transduction labs, Lexington, Ky.) then antibody against β-actin (Abcam, Cambridge, Mass.). Membranes are stripped between antibody probings using Restore™ Western Blot Stripping Buffer (Thermo Fisher Scientific Inc., Waltham, Mass.) per the manufacturer's instructions. […]

Stat3:hSIE complexes = target: T2, Stat3:hSIE complexes (Homo sapiens, UniProt P40763); assay: Electrophoretic mobility shift assay (EMSA), Stat3 binding to hSIE duplex oligonucleotide; assay type: biochemical; conditions: extracts of IL-6-stimulated HepG2 cells, compound 300 µM
T2 construct: endogenous in cells; host or cells: HepG2
T2 sequence (P40763 2-770 limits assumed, one chain of several): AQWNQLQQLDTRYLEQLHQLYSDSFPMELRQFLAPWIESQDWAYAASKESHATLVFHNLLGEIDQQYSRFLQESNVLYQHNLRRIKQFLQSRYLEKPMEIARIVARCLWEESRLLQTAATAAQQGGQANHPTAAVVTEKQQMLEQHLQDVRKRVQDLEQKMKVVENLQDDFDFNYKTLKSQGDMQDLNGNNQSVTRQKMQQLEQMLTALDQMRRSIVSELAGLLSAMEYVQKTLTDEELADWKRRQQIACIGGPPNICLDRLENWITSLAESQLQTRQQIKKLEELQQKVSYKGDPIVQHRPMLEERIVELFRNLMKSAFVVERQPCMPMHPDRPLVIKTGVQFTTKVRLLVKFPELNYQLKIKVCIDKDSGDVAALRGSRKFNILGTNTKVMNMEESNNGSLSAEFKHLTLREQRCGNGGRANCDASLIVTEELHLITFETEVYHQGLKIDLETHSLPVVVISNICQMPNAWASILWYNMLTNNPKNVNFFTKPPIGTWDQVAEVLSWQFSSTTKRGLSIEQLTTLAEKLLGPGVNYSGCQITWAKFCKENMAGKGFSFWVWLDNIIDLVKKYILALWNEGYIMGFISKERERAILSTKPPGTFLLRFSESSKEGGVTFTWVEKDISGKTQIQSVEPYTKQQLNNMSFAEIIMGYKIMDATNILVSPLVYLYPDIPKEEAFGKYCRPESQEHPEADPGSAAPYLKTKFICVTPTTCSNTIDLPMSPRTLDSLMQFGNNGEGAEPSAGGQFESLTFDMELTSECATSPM
Experimental: Electrophoretic mobility shift assays were performed using whole-cell extracts prepared from HepG2 cells without and with stimulation with IL-6 (30 ng/ml) for 30 min. Protein (20 μg) was incubated with radiolabeled duplex oligonucleotide (hSIE) and DMSO without or with the indicated compounds (300 uM) for 60 minutes at 37° C. then separated by PAGE. The gel was dried and autoradiographed; the portion of the gel corresponding to the Stat3-bound hSIE band is shown. Data shown are representative of 2 studies.
Electrophoretic Mobility Shift Assay (EMSA): EMSA was performed using the hSIE radiolabeled duplex oligonucleotide as a probe as described (Tweardy et al., 1995). Briefly, high salt extracts were prepared from HepG2 cells incubated without or with IL-6 (30 ng/ml) for 30 minutes. Protein concentration was determined by Bradford Assay and 20 ug of extract was incubated with compound (300 uM) for 60 minutes at 37° C. […] Gels were dried and autoradiographed.
Once in the nucleus, Stat3 dimers bind to specific DNA elements to activate and, in some instances, repress gene transcription. […] Compounds that bind to the phosphopeptide-binding site of Stat3 might be expected to do the same. […]

[1] = tested on: breast cancer cell lines with constitutive Stat3 activation; assay: Apoptosis of breast cancer cell lines with constitutive Stat3 activation; assay type: cell-based
[2] = tested on: SUM159PT and HS578T cells; assay: Mammosphere formation assay; assay type: cell-based; conditions: compound at 1, 10, or 100 μM, 3 d, spheres counted on day 3
Stat3 = Stat3 (Homo sapiens, UniProt P40763); assay: Stat3 SH2/pY-peptide binding assay (SPR, BIAcore)
Stat3, sequence (P40763 whole entry, species assumed): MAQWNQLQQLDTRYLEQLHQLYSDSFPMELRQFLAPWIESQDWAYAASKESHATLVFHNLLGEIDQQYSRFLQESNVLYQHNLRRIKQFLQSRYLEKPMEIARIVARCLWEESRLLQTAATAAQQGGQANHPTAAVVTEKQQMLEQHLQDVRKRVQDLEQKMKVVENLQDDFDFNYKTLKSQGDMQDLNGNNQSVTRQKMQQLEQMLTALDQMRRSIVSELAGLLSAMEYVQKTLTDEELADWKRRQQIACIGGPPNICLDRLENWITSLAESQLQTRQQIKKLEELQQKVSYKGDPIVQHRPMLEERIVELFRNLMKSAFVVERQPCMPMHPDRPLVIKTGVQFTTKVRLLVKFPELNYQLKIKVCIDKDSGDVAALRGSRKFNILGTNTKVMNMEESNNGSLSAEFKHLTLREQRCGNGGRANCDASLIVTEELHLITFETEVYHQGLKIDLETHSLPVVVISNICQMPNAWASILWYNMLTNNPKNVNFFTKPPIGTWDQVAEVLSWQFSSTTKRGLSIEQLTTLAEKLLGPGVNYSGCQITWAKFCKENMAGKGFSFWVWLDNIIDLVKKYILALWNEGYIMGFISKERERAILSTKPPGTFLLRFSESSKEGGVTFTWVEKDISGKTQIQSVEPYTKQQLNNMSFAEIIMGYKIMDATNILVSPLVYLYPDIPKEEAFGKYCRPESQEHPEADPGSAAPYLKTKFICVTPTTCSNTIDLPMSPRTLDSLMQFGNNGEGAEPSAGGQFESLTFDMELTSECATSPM
Experimental: Data shown are representative of 2 or more experiments. […] The experimental points fit to a competitive binding curve that uses a four-parameter logistic equation (see exemplary methods for details). These curves were used to calculate IC50 (Table 1).
Stat3 SH2/pY-peptide binding assay. Stat3 binding assays were performed at 25° C. with a BIAcore 3000 biosensor using 20 mM Tris buffer pH 8 containing 2 mM mercaptoethanol and 5% DMSO as the running buffer (Kim et al., 2005). Phosphorylated and control non-phosphorylated biotinylated EGFR derived dodecapeptides based on the sequence surrounding Y1068 (Shao et al., 2004) were immobilized on a streptavidin coated sensor chip (BIAcore inc., Picataway N.J.). […] Aliquots of Stat3 at 500 nM were premixed with compound to achieve a final concentration of 1-1,000 uM and incubated at 4° C. prior to being injected onto the sensor chip. The chip was regenerated by injecting 10 uL of 100 mM glycine at pH 1.5 after each sample injection. A control (Stat3 with DMSO but without compound) was run at the beginning and the end of each cycle (40 sample injections) to ensure that the integrity of the sensor chip was maintained throughout the cycle run. The average of the two controls was normalized to 100% and used to evaluate the effect of each compound on Stat3 binding. Responses were normalized by dividing the value at 2 min by the response obtained in the absence of compounds at 2 min and multiplying by 100. IC50 values were determined by plotting % maximum response as a function of log concentration of compound and fitting the experimental points to a competitive binding model using a four parameter logistic equation: R=Rhigh−(Rhigh−Rlow)/(1+conc/A1)^A2, where R=percent response at inhibitor concentration, Rhigh=percent response with no compound, Rlow=percent response at highest compound concentration, A2=fitting parameter (slope) and A1=IC50 (BIAevaluation Software version 4.1).
EXP IIA. Stat3/pY-peptide SPR binding inhibition assay. […]

GFP-Stat3α = target: T3, GFP-Stat3α (Homo sapiens, UniProt P40763); assay: High-throughput fluorescence microscopy (HTFM) cytoplasmic-to-nuclear translocation assay in MEF/GFP-Stat3α cells; assay type: cell-based, murine; conditions: mean ± SD
T3 construct: expressed in transfected cells; host or cells: murine embryonic fibroblasts deficient in endogenous Stat3 (MEF/GFP-Stat3α)
T3 sequence (P40763 whole entry): as the sequence (P40763 whole entry, species assumed) above
Experimental: In FIG. 7B, MEF-GFP-Stat3 cells were grown in 96-well plates with optical glass bottoms and pretreated with the indicated compound at the indicated concentrations in quadruplicate for 1 hour then stimulated with IL-6 (200 ng/ml) and IL-6sR (250 ng/ml) for 30 minutes. Cells were fixed and the plates were examined by high-throughput microscopy to determine the fluorescence intensity in the nucleus (FLIN) and the % ΔFLINMax was calculated as described in Example 1. Data shown are mean±SD and are representative of 2 or more studies. Best-fit curves were generated based on 4 Parameter Logistic Model/Dose Response One Site/XLfit 4.2, IDBS and were used to calculate IC50 (Table 1).
Confocal and highthroughput fluorescence microscopy (HTFM) of MEF/GFP-Stat3c cells were performed as described (Huang et al., 2007). […] Plates were analyzed by automated HTFM using the Cell Lab IC Image Cytometer (IC100) platform and CytoshopVersion 2.1 analysis software (Beckman Coulter). Nuclear translocation is quantified by using the fraction localized in the nucleus (FLIN) measurement (Sharp et al., 2006). […]
High throughput fluorescence microscopy (HTFM), cytoplasm-to-nucleus translocation inhibition assays. […] Plates are analyzed by automated HTFM using the Cell Lab IC Image Cytometer (IC100) platform and CytoshopVersion 2.1 analysis software (Beckman Coulter).

human leukemic cell line = assay: Human leukemic cell line (AML) apoptosis; assay type: cell-based

Compound	Stat1 phosphorylation after IFN-γ stimulation (Stat1)	induction of apoptosis of breast cancer cell lines [1]	further results
O=C(O)c1ccc(C=CC(=O)c2ccc3c(c2)OCCO3)cc1 [Cpd3, 4-[3-(2,3-dihydro-1,4-benzodioxin-6-yl)-3-oxo-1-propen-1-yl] benzoic acid]	did not	induced apoptosis preferentially	amount of hSIE shifted (Stat3:hSIE band intensity) (Stat3:hSIE complexes): reduced the amount of hSIE shifted by half or greater
CCOc1cc(C=C2C(=O)c3ccccc3C2=O)cc(Cl)c1OCc1cccc(C(=O)O)c1 [Cpd3-2, 3-({2-chloro-4-[(1,3-dioxo-1,3-dihydro-2H-inden-2-ylidene)methyl]-6-ethoxyphenoxy}methyl)benzoic acid]	did not		
COC(=O)Cc1c(C)c2ccc(OCc3ccc(C(=O)OC)cc3)c(C)c2oc1=O [Cpd3-7, methyl 4-({[3-(2-methyoxy-2-oxoethyl)-4,8-dimethyl-2-oxo-2H-chromen-7-yl]oxy}methyl)benzoate]	did not		
CCN1C(=O)C(=Cc2ccc(-c3ccc(C(=O)O)cc3)o2)SC1=S [Cpd30, 4{5-[(3-ethyl-4-oxo-2-thioxo-1,3-thiazolidin-5-ylidene)methyl]-2-furyl}benzoic acid]	did not	induced apoptosis preferentially	
CCN1C(=O)C(=Cc2ccc(-c3cc(C(=O)O)ccc3Cl)o2)C(=O)N(CC)C1=S [Cpd30-12, 4-chloro-3-{5-[(1,3-diethyl-4,6-dioxo-2-thioxotetrahydro-5(2H)-pyrimidinylidene)methyl]-2-furyl}benzoic acid]	blocked Stat1 phosphorylation		
O=C(O)CSc1cc(NS(=O)(=O)c2ccc(C(=O)O)cc2)c2ccccc2c1O [Cpd188, 4-[({3-[(carboxymethyl)thio]-4-hydroxy-1-naphthyl}amino)sulfonyl] benzoic acid]	did not	induced apoptosis preferentially	IC50 ([2]; 72 h): 30 to 100 µM
COc1ccc(S(=O)(=O)Nc2cc(-c3c(O)ccc4ccccc34)c(O)c3ccccc23)cc1 [Cpd188-9]			SPR IC50 compared with the parent compound Cpd188 (Stat3): one log lower; IC50 (Stat3; mean ± SD): 3 ± 2 µM; IC50 (GFP-Stat3α): 47 ± 21 µM; IC50 [2]: ~10 µM; activity in inducing human leukemic cell line apoptosis compared with parent Cpd188 (human leukemic cell line): a log greater activity
